# According to patent publication US4835154A, “1-aralykyl-5-piperazinylmethyl-2-mercaptoimidazoles and 2-alkylthioimidazoles and their use as dopamine-βhydroxylase inhibitors” (SmithKline Beckman Corporation, priority 1987, dated 1989):
# How the values were obtained:
# DBH [1] = molecular target: T1, DBH (Homo sapiens, UniProt P09172); settings: literature reports; cited from earlier work
# T1 sequence (P09172 1-617): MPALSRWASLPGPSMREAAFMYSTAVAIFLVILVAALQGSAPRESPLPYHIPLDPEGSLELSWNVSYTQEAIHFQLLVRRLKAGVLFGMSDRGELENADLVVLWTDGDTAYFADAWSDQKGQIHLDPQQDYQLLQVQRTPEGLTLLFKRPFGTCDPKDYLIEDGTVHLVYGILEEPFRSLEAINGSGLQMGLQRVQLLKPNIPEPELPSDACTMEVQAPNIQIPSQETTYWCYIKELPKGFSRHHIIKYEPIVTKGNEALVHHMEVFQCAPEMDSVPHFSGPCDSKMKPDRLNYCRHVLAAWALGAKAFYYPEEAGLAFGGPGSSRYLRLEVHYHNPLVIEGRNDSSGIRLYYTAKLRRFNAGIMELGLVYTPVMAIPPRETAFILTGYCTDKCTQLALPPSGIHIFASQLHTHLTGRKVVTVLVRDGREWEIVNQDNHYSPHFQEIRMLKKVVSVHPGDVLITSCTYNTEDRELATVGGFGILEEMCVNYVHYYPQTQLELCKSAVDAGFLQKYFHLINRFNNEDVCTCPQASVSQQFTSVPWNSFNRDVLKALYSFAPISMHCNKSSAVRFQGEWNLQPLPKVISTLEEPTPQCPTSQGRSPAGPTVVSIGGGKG
# [2] = Ehrreich et al., 1976; cited from earlier work
# [3] = system: spontaneously hypertensive rats; assay: mean arterial blood pressure in spontaneously hypertensive rats; assay type: in vivo; settings: 50 mg/kg intraperitoneally, vs vehicle-treated controls
# Procedure: Further, spontaneously hypertensive rats were treated with the compound in Table I at a dose of 50 mg/kg intraperitoneally, and mean arterial blood pressure was monitored for 260 minutes using indwelling cannulae in the tail arteries. […] The maximal blood pressure reduction was approximately 25 mmHg.
# DBH [4] = molecular target: T2, DBH (Bos taurus, UniProt P15101); assay: in vitro DBH inhibition, conversion of tyramine to octopamine; assay type: biochemical; settings: molar concentration of compound at which DBH activity was halved; octopamine assayed as p-hydroxybenzaldehyde at 330 nm
# T2 sequence (P15101 1-610): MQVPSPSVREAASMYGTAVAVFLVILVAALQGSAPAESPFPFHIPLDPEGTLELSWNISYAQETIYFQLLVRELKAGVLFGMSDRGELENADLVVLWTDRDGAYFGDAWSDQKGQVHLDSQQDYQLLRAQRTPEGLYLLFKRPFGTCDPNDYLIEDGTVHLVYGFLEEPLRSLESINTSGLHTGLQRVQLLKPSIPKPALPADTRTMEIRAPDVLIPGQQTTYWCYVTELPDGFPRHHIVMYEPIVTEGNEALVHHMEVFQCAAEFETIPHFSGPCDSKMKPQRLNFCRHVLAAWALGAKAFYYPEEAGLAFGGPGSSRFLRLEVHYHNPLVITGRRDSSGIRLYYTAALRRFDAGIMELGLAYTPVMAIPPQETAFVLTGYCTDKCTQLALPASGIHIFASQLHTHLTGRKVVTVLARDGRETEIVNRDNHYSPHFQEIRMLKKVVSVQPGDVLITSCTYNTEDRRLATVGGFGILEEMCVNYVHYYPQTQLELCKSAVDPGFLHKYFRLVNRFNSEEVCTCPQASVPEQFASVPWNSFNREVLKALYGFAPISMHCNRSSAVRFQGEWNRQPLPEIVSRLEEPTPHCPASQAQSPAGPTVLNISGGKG
# Procedure: Listed in Table I is the compound of the invention that was tested for in vitro DBH inhibition by a standard procedure for assaying conversion of tyramine to octopamine in the presence of DBH. J. J. Pisano, et al., Biochim. Biophys. Acta, 43, 566-568 (1960). Octopamine was assayed following sodium periodate oxidation to p-hydroxybenzaldehyde by measuring spectrophotometric absorbance at 330 nm. In Table I, inhibition is given in molar concentration of compound at which DBH activity was halved (IC50). Fusaric acid, by this test has an IC50 of 8×10^-7 M.
# [5] = Teresawa et al., 1971; cited from earlier work
Compound,DBH inhibition (in words) (DBH [1]),also measured
"O=C(O)c1ccc(CCC(Br)CBr)cn1 (stereo not drawn) [5-(3,4-dibromobutyl)picolinic acid]",DBH inhibitors,
O=C(O)c1ccc(CCCCCl)cn1 [5-(4-chlorobutyl) picolinic acid],inhibit DBH,
CN(C)C(=S)SCc1ccc(C(=O)O)nc1 [5-(dimethyldithiocarbamoylmethyl)picolinic acid],DBH inhibitors,
NOCc1ccccc1 [Benzyloxyamine],competitive inhibitors,
"CCCCc1ccc(C(N)=O)nc1 [Bupicomide, 5-(n-butyl)picolinamine]",DBH inhibitor,antihypertensive activity [2]: antihypertensive activity
"CN1CCN(Cc2cnc(S)n2Cc2cc(F)cc(F)c2)CC1 [Example 1, 1-(3,5-Difluorobenzyl)-5-[(4-methyl-1-piperazinyl)methyl]-2-mercaptoimidazole]",,maximal blood pressure reduction ([3]; mean arterial blood pressure monitored for 260 minutes): approximately 25 mmHg; time to significant blood pressure reductions following treatment [3]: ≤ 30 min; blood pressure effect ([3]; within 30 minutes): significant blood pressure reductions; IC50 (DBH [4]): 590 µM
CCCCc1ccc(C(=O)O)nc1 [Fusaric acid],,hepatotoxicity [5]: hepatotoxic
NNCc1ccccc1 [benzylhydrazine],competitive inhibitors,
